Measured values from patent US10774081B2, “Indolo substituted piperidine compound as estrogen receptor down-regulator” (LUOXIN PHARMACEUTICAL (SHANGHAI) CO., LTD., priority 2016, dated 2020).

How the values were obtained:
[1] = tested on: MCF-7 cells; experiment: MCF-7 Cell Proliferation Inhibition Assay; type: cell-based; settings: Homo sapiens, MCF7, 144 h, 6 days incubation, CellTiter-Glo, read-out: MCF-7 cell proliferation suppression
Description: (1) MCF-7 Cell Proliferation Inhibition Assay
Substrate RPMI 1640, fetal calf serum, reagent Promega CellTiter-Glo. MCF-7 cell lines were purchased from the European Cell Culture Collection (ECACC). Envision multi-lable analyzer (PerkinElmer).
MCF-7 cells were seeded in black 384-well plates, each of the well has 600 cells in […] of cell suspension. The cell plates were placed in a carbon dioxide incubator overnight.
The compound to be tested was diluted by 5 times for 10 concentrations with Epmotion, ie., dilution from 0.25 mmol to 1.28 nmol, and replicated. 198 μl Medium was added to the middle plate, and 2 μl of each well of the gradient diluted compound was transferred to the correspondent position on the middle plate, and then 20 μl of each well was transferred to the cell plate after mixing. Then the cell plate was incubated in a carbon dioxide incubator for 6 days.
25 μl Promega CellTiter-Glo reagent was added into each well of the cell plate, the cell plate was then incubated for 10 mins at room temperature to stabilize the luminescence signal. PerkinElmer Envision multi-label analyser was used for readings.
The original data is converted to the inhibition rate using the equation (Max−Ratio)/(Max−Min)*100%, the value of IC50 also can be obtained by the curve fitting with four parameters. (by 205 model in XLFIT5,iDBS)

[2] = biological target: T1, estrogen receptor (Homo sapiens, UniProt P03372); experiment: ER Degradation in MCF-7 Cell; type: cell-based; settings: MCF-7 cells, 20 hours incubation, ER antibody infrared fluorescence; read-out: MCF-7 ER degradation IC50 intracellular
T1 construct: endogenous in cells; host or cells: MCF-7 (ECACC)
T1 sequence (P03372 1-595): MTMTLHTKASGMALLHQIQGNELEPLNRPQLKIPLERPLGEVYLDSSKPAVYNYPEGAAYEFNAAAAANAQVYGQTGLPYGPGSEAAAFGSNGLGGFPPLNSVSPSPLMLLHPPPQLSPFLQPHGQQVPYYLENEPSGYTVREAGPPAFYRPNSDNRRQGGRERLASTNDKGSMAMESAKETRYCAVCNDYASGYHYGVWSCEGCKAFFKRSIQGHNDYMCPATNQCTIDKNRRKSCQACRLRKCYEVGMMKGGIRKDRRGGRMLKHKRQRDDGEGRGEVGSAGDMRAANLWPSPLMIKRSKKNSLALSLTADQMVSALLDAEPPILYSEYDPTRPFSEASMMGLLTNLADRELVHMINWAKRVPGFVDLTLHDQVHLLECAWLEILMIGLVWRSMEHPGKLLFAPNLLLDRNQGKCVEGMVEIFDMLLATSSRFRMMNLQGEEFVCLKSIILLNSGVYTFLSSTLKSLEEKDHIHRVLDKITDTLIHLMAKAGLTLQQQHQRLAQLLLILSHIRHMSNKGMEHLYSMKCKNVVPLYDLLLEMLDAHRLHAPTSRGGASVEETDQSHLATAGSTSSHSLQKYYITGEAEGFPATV
Description: Substrate RPMI 1640, fetal calf serum, PBS, 16% paraformaldehyde, Triton, confining liquid, estrogen receptor antibody, near0infrared goat anti-rabbit secondary antibody, DRAQ5 dye. The MCF-7 cell lines were purchased from the European Cell Culture Collection (ECACC). Odyssey infrared fluorescence scanning imaging system.
The MCF-7 cell was seeded in the black 384-well plate, each of the well has 3200 cells in 30 ml cell suspension. The cell plate were incubated in a carbon dioxide incubator for 4 days.
198 μl Medium was added into the middle plate and 2 μl each well of the gradient diluted compound was transferred to the correspond position on the middle plate, then the compound was transferred 20 μl per well after mixing to the cell plate. The cell plate was then incubated in a carbon dioxide incubator for 20 hours.
50 μl 8% Paraformaldehyde was added into each well of the cell plate, after incubation at room temperature for 30 min, the plate was washed by PBS twice, pat dried and 50 ul PBS containing 0.1% Triton was added, the plate was incubated at room temperature for 15 mins, then washed with PBS for 5 times, pat dried and 50 ul confining liquid was added and incubated at room temperature for 1 hour, pat dried and 50 ul confining liquid containing 0.1% estrogen receptor antibody was added and then left at 4° C. overnight. […]

[3] = Tissue distribution evaluation of the drug (plasma and brain); type: in vivo; settings: mouse, mice, dosage 10 mpk, 21th day after administration, tissue collected near Tmax, read-out: Ratio of drug concentration Brain tissue/plasma
Description: Experiment 2: Tissue Distribution Evaluation of the Drug
On the 21th day after administration, select randomly three mice from the drug-administrated group, and collect their plasma samples at different timing, the mice were euthanized near Tmax, and the tumor, brain and breast samples were collected.
The procedure of collecting the plasma and tissue samples are as follows:
Plasma: Blood (60 μl) was collected using a 1.5 ml EDTA-K2 anticoagulation tube, the plasma was obtained after immediately centrifugation at 7000 rpm, at 4° C. for 10 mins, then the plasma simple was stored at −80° C. for drug concentration determination.
Tissue: Brain was collected using a 5 ml cryotube and immediately quick froze in liquid nitrogen. After sampling, tissues were stored at −80° C. for drug concentration determination used for comparing the distribution.

[4] = in vivo; cited from earlier work
[5] = tested on: breast cancer; settings: intramuscularly administrated; cited from earlier work

Compound	IC50 [1] [nM]	DC50 [2] [nM]	Kp [3]	oral bioavailability [4]	breast cancer patients showing clinical response [5] [%]
CC1Cc2c([nH]c3ccccc23)C(c2c(F)cc(OCCN3CC(CC#N)C3)cc2F)N1CC(F)(F)F (stereo not shown) [(I)]	1.17	1.13	13.1	–	–
C[C@]12CC[C@@H]3c4ccc(O)cc4C[C@@H](CCCCCCCCC[S+]([O-])CCCC(F)(F)C(F)(F)F)[C@H]3[C@@H]1CC[C@@H]2O (stereo partly shown) [Fulvestrant]	1.77	–	–	zero	50
C[C@@H]1Cc2c([nH]c3ccccc23)[C@@H](c2c(F)cc(OCCN3CC(CF)C3)cc2F)N1CC(C)(C)F [(II)]	–	–	5.8	–	–
